Measured values from PMC7496091, “Small‐Molecule Inhibitors Targeting Sterol 14α‐Demethylase (CYP51): Synthesis, Molecular Modelling and Evaluation Against Candida albicans” (Chemmedchem, 2020).
Read-outs that look alike come from different tables or passages of the source.

Legend:
C. albicans SC5314 [1] = test: Sterol profile analysis by GC-MS, strain SC5314; type: cell-based, Candida albicans; conditions: SC5314, % of total sterols, half the MIC (fluconazole 0.06, 5 d 0.06, 5 f 0.015, 12 c 0.5 μg/mL), 18 h
Description: (§1) Sterols were then extracted and analysed by GC‐MS and sterol profiles (% of the total sterol extracted) were determined (Table 6).
(§2) Sterol profile analysis of C. albicans strains. […] Cells were pelleted and washed with ddH2O and non‐saponifiable lipids were extracted using methanolic KOH as reported previously.41 Samples were dried in a vacuum centrifuge and were derivatised by the addition of 100 μL 90 % BSTFA / 10 % TMCS (Sigma), 200 μL anhydrous pyridine (Sigma) and heating for 2 h at 80 °C. TMS‐derivatised sterols were analysed and identified by using GC/MS (Thermo 1300 GC coupled to a Thermo ISQ mass spectrometer, Thermo Scientific) with reference to retention times and fragmentation spectra for known standards. GC/MS data files were analysed using Xcalibur software (Thermo Scientific) to determine sterol profiles for all isolates and to integrate peak areas.

CaCYP51 [2] = target: T1, CaCYP51 (Candida albicans, UniProt P10613); test: biochemical; type: binding
T1 construct: made in house; host or cells: Escherichia coli
Source text: […]. There were no signs of compound insolubility (visible or rising background absorbance) during the ligand titrations. […] […].
The rearranged Morrison equation34 gave the best fit to the ligand saturation curves against CaCYP51 (Figure 5) indicating the selected compounds bound tightly to the purified CaCYP51 protein in free solution. Likewise the rearranged Morrison equation34 gave the best fit for binding 5 d and 5 f to Δ60HsCYP51, thus indicating tight binding in free solution (Figure 5). […].
Recombinant CYP51 protein studies. […] All azole ligand binding determinations were performed in triplicate, except the binding of compound 12 c with Δ60HsCYP51 which was performed six times. CYP51 protein samples were diluted with 0.1 M Tris⋅HCl (pH 8.1) and 25 % (w/v) glycerol to the required concentration.
(§3) Dissociation constant (K d). The K d for each CYP51‐azole complex was determined by non‐linear regression (Levenberg‐Marquardt algorithm) using a rearrangement of the Morrison equation for tight ligand binding.34 Where ligand binding was weaker, the Michaelis‐Menten equation was used to fit the data (Figure S5). K d values were determined for each of the three replicate titrations per azole compound and then mean K d values and standard deviations calculated.

C. albicans CA14 [3] = test: Sterol profile analysis by GC-MS, strain CA14; type: cell-based, Candida albicans; conditions: CA14, % of total sterols, half the MIC (fluconazole 0.06, 5 d 0.06, 5 f 0.015, 12 c 0.5 μg/mL), 18 h
Description: as §1, §2

Δ60HsCYP51 [4] = target: T2, Δ60HsCYP51 (Homo sapiens, UniProt Q16850); test: CYP51 reconstitution assay (IC50), Δ60HsCYP51; type: biochemical
Description: CYP51 reconstitution assays. […] Azoles were introduced using 2.5 μL of stock solutions in DMSO. […] Each IC50 experiment was performed in duplicate.

C. albicans CA14 [5] = test: MIC, CLSI M27-S4 broth dilution, strain CA14; type: cell-based, Candida albicans; conditions: Candida albicans, CA14, 48 hours
Description: Susceptibility testing of C. albicans strains. […] Stock solutions of each agent were prepared in DMSO. […] The final testing concentrations for all compounds ranged from 0.03–16 μg mL^−1.

CaCYP51 [6] = target: T1, CaCYP51; test: biochemical
Description: […]. […] […]. CYP51 reconstitution assays. IC50 values were determined for individual azole compounds18, 30 using lanosterol as substrate. Azoles were introduced using 2.5 μL of stock solutions in DMSO. CaCYP51 assays contained 1 μM CaCYP51 and 2 μM Homo sapiens cytochrome P450 reductase (HsCPR – UniProtKB accession number P16435) and were incubated for 20 min at 37 °C. HsCYP51 assays contained 0.25 μM Δ60HsCYP51 and 1 μM HsCPR and were incubated for 10 min at 37 °C. Each IC50 experiment was performed in duplicate.

Δ60HsCYP51 [7] = target: T2, Δ60HsCYP51; test: Azole ligand binding titration (type II difference spectra, Kd), Δ60HsCYP51; conditions: for Type of difference binding spectra with Δ60HsCYP51: titration with Δ60HsCYP51
Description: Recombinant CYP51 protein studies.
as §3

C. albicans SC5314 [8] = test: MIC, CLSI M27-S4 broth dilution, strain SC5314; type: cell-based, Candida albicans; conditions: Candida albicans, SC5314, 48 hours
Description: The susceptibilities of the SC5314 and CA14C. albicans (azole sensitive) strains to all novel azole derivatives (5, 7 and 12) were determined (Table 3) using the standardized CLSI M27‐S4 broth dilution method.28
Susceptibility testing of C. albicans strains. […] Stock solutions of each agent were prepared in DMSO. Further dilutions were made in RPMI‐1640, and the final concentration of DMSO was 1 % (v/v). The final testing concentrations for all compounds ranged from 0.03–16 μg mL^−1.

Δ60HsCYP51 [9] = target: T2, Δ60HsCYP51; conditions: cited from earlier work; for IC50: read-out: IC50 Δ60HsCYP51 (Hs), 0.4 μM Δ60HsCYP51 ref 21
CaCYP51 [10] = target: T1, CaCYP51; conditions: 1 μM CaCYP51 ref 21; read-out: IC50 CaCYP51 (Ca) (converted); cited from earlier work
Δ60HsCYP51 [11] = target: T2, Δ60HsCYP51; conditions: read-out: K d Δ60HsCYP51 (Hs); cited from earlier work
[12] = 3 μM native CaCYP51, mean of three replicates ± SD, read-out: K d CaCYP51
[13] = 0.25 μM Δ60HsCYP51, lanosterol as substrate, read-out: IC50 Δ60HsCYP51 (Hs)
[14] = 1 μM CaCYP51, lanosterol as substrate, curve-fitted, read-out: CaCYP51 IC50
[15] = Morrison equation estimates, read-out: Kapp/i from the inhibition profiles with CaCYP51
[16] = 3 μM native Δ60HsCYP51, mean ± SD (12 c n=6), read-out: K d Δ60HsCYP51 (Hs)

T1 sequence (P10613 whole entry): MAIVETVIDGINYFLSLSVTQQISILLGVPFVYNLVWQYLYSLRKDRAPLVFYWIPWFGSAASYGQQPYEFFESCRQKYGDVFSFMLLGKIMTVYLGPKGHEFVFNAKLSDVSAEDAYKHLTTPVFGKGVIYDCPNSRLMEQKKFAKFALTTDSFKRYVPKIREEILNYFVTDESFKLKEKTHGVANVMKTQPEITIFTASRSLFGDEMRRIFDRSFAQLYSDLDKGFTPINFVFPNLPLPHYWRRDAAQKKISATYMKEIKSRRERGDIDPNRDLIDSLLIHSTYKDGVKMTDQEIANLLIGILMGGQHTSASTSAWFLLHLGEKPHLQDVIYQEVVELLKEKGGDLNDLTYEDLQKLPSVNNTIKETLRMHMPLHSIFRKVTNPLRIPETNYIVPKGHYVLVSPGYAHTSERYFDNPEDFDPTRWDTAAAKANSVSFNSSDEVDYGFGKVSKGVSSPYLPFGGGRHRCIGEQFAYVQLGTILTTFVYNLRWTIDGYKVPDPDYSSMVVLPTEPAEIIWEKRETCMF
T2 sequence (Q16850 61-509, stated change not applied): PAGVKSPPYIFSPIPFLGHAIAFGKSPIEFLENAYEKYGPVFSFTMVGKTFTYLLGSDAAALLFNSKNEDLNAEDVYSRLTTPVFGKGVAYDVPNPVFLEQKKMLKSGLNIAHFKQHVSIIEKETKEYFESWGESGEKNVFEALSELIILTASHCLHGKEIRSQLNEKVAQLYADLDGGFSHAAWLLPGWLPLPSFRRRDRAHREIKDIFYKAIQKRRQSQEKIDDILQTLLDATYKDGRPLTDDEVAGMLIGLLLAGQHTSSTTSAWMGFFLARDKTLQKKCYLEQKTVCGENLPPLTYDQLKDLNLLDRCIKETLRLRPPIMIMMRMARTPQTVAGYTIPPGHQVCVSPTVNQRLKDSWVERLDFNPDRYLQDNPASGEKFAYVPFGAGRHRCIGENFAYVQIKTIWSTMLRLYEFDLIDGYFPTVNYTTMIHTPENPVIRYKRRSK
T2 sequence (P16435 2-677, stated change not applied, further chain): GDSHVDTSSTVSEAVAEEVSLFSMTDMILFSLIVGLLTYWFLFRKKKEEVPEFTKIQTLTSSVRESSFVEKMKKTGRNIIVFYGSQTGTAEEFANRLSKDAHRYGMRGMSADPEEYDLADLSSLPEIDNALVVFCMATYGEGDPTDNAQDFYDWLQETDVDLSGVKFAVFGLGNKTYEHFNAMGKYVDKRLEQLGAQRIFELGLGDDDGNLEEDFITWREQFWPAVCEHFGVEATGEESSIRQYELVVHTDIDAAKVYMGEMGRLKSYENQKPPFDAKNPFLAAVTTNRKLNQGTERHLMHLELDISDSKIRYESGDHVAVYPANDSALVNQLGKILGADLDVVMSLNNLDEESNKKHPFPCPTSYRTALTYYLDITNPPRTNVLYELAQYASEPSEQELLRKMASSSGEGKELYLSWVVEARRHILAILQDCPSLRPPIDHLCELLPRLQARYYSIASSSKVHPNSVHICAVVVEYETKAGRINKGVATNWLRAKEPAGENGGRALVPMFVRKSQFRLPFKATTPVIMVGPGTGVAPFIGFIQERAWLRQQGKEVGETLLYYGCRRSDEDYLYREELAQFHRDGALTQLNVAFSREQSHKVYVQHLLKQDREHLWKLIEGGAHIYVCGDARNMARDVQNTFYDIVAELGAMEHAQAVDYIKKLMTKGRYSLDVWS

Row | SMILES | melting point [°C] | Sterol composition: diol (14α‐methyl ergosta‐8,24(28)‐dien‐3,6‐diol) (C. albicans SC5314 [1]) [%] | Sterol composition: eburicol (C. albicans SC5314 [1]) [%] | Sterol composition: ergosterol (C. albicans SC5314 [1]) [%] | Sterol composition: lanosterol (C. albicans SC5314 [1]) [%] | Sterol composition: total 14α‐methylated sterols (C. albicans SC5314 [1]) [%] | Kd (CaCYP51 [2]; [12]) [µM] | Sterol composition: diol (14α‐methyl ergosta‐8,24(28)‐dien‐3,6‐diol) (C. albicans CA14 [3]) [%] | Sterol composition: eburicol (C. albicans CA14 [3]) [%] | Sterol composition: ergosterol (C. albicans CA14 [3]) [%] | Sterol composition: lanosterol (C. albicans CA14 [3]) [%] | Sterol composition: total 14α‐methylated sterols (C. albicans CA14 [3]) [%] | IC50 (Δ60HsCYP51 [4]; [13]) [µM] | MIC (C. albicans CA14 [5]; 80 % reduction in turbidity) [µg/mL] | MIC (C. albicans CA14 [5]; value in brackets) [µM] | IC50 (CaCYP51 [6]; [14]) [µM] | Ki (CaCYP51 [6]; [15]) [µM] | Type of difference binding spectra with Δ60HsCYP51 (Δ60HsCYP51 [7]) | MIC (C. albicans SC5314 [8]; 80 % reduction in turbidity) [µg/mL] | MIC (C. albicans SC5314 [8]; value in brackets) [µM] | other results
1 | O=C(NCc1ccc(Cl)cc1)C(Cn1ccnc1)c1ccc(Cl)cc1 (stereo not drawn) [Compound 5 d, N‐(4‐Chlorobenzyl)‐2‐(4‐chlorophenyl)‐3(1H‐imidazol‐1‐yl)propanamide] | 160 to 162 | 17.6±7.1 | 20.5±4.4 | 2.7±2.3 | 41.0±5.5 | 95.8 | 0.017 ± 0.005 | 8.2±6.0 | 26.4±5.0 | 7.8±6.5 | 40.4±2.2 | 90.0 | 3.37 | 0.125 | 0.33 | 0.39 | 0.16 | type II difference binding spectra | 0.125 | 0.33 | Kd (Δ60HsCYP51 [7]; [16]): 0.045 ± 0.013 µM
2 | O=C(NCc1ccc(Cl)cc1Cl)C(Cn1ccnc1)c1ccc(Cl)cc1 (stereo not drawn) [Compound 5 f, 2‐(4‐Chlorophenyl)‐N‐(2,4‐dichlorobenzyl)‐3‐(1H‐imidazol‐1‐yl)propanamide] | 148 to 150 | 11.7±1.4 | 21.0±3.3 | 9.1±5.5 | 38.6±3.6 | 89.3 | 0.062 ± 0.017 | 7.5±4.6 | 26.1±0.1 | 4.3±0.5 | 43.6±1.8 | 77.2 | 3.73 | < 0.03 | < 0.07 | 0.46 | 0.2 | type II difference binding spectra | < 0.03 | < 0.07 | Kd (Δ60HsCYP51 [7]; [16]): 0.074 ± 0.013 µM
3 | O=C(NCc1ccc(NS(=O)(=O)c2ccc(Cl)cc2)cc1)C(Cn1cncn1)c1ccccc1 (stereo not drawn) [Compound 12 c, N‐(4‐((4‐chlorophenyl)sulfonamido)benzyl)‐2‐phenyl‐3‐(1H‐1,2,4‐triazol‐1‐yl)propanamide] | 122 to 124 | 7.2±5.2 | 14.0±3.5 | 24.9±5.5 | 34.5±2.9 | 70.6 | 0.043 ± 0.018 | 9.2±1.2 | 22.4±1.1 | 3.5±1.3 | 43.6±1.5 | 93.3 | 152 | 1 | 2.02 | 0.33 | 0.11 | type II difference binding spectra | 1 | 2.02 | Kd (Δ60HsCYP51 [7]; [16]): 0.923 ± 0.509 µM
4 | OC(Cn1cncn1)(Cn1cncn1)c1ccc(F)cc1F [fluconazole, reference compound] |  |  |  |  |  |  |  |  |  |  |  |  |  | 0.125 | 0.41 |  |  | type II difference binding spectra | 0.125 | 0.41 | Kd (CaCYP51 [2]): 0.041 ± 0.013 µM; IC50 (CaCYP51 [6]): 0.31 µM; Ki (CaCYP51 [6]): 0.03 µM
5 | CCC(C)n1ncn(-c2ccc(N3CCN(c4ccc(OCC5COC(Cn6cncn6)(c6ccc(Cl)cc6Cl)O5)cc4)CC3)cc2)c1=O (stereo not drawn) [itraconazole] |  |  |  |  |  |  |  |  |  |  |  |  |  |  |  |  |  |  |  |  | IC50 (Δ60HsCYP51 [9]): 70 µM; IC50 (CaCYP51 [10]): 0.4 µM; Kd (Δ60HsCYP51 [11]): 0.092 µM
6 | CC(=O)N1CCN(c2ccc(OCC3COC(Cn4ccnc4)(c4ccc(Cl)cc4Cl)O3)cc2)CC1 (stereo not drawn) [ketoconazole] |  |  |  |  |  |  |  |  |  |  |  |  |  |  |  |  |  |  |  |  | IC50 (Δ60HsCYP51 [9]): 4.5 µM; IC50 (CaCYP51 [10]): 0.5 µM
7 | O[C@@](Cn1cnnn1)(c1ccc(F)cc1F)C(F)(F)c1ccc(-c2ccc(OCC(F)(F)F)cc2)cn1 [oteseconazole] |  |  |  |  |  |  |  |  |  |  |  |  |  |  |  |  |  |  |  |  | Inhibition of Δ60HsCYP51 activity (Δ60HsCYP51 [9]; at concentrations up to 50 μM ref 31): did not inhibit
8 | CC[C@@H]([C@H](C)O)n1ncn(-c2ccc(N3CCN(c4ccc(OC[C@@H]5CO[C@@](Cn6cncn6)(c6ccc(F)cc6F)C5)cc4)CC3)cc2)c1=O [posaconazole, reference compound] |  |  |  |  |  |  | 0.043 ± 0.011 |  |  |  |  |  |  |  |  |  |  |  |  |  | IC50 (Δ60HsCYP51 [4]): 123 µM; Kd (Δ60HsCYP51 [7]): 0.204 ± 0.063 µM
9 | C[C@@H](c1ncncc1F)[C@](O)(Cn1cncn1)c1ccc(F)cc1F [voriconazole, reference compound] |  |  |  |  |  |  |  |  |  |  |  |  |  |  |  |  |  |  |  |  | IC50 (Δ60HsCYP51 [4]): 78 µM
